Measured values published in patent US20260042731A1, “(2,4-DICHLOROPHENOXY)ACETIC ACID ANALOGS” (CORTEVA AGRISCIENCE LLC, priority 2022, published 2026).
Read-outs that look alike come from different tables or passages of the source.

Columns and labels:
[1] = tested on: weeds (ABUTH, AMATA, AMBEL, CHEAL, ERICA); experiment: Postemergence herbicide evaluation, overall average % weed control across ABUTH, AMATA, AMBEL, CHEAL, ERICA; assay type: in vivo; details: post-emergence, average over the five weeds, read-out: Overall Ave % Weed Control; for pest or weed control at 280 g/ha: 280 g ae/ha; for pest or weed control at 560 g/ha: 560 g ae/ha
[2] = tested on: Abutilon theophrasti (ABUTH), velvetleaf; experiment: Postemergence herbicide evaluation, growth of Abutilon theophrasti (ABUTH); assay type: in vivo; details: Abutilon theophrasti, post-emergence, percent reduction in plant size relative to untreated control, read-out: AVE. ABUTH; for pest or weed control at 280 g/ha: 280 g ae/ha; for pest or weed control at 560 g/ha: 560 g ae/ha
[3] = Volatility of compounds measured by thermogravimetric analysis (TGA); assay type: physicochemical
[4] = tested on: Amaranthus rudis (AMATA), tall water hemp; experiment: Postemergence herbicide evaluation, growth of Amaranthus rudis (AMATA); assay type: in vivo; details: Amaranthus tuberculatus, post-emergence, percent reduction in plant size relative to untreated control, read-out: Ave. AMATA; for pest or weed control at 280 g/ha: 280 g ae/ha; for pest or weed control at 560 g/ha: 560 g ae/ha
[5] = tested on: Ambrosia artemisiifolia (AMBEL), common ragweed; experiment: Postemergence herbicide evaluation, growth of Ambrosia artemisiifolia (AMBEL); assay type: in vivo; details: Ambrosia artemisiifolia, post-emergence, percent reduction in plant size relative to untreated control, read-out: AVE. AMBEL; for pest or weed control at 280 g/ha: 280 g ae/ha; for pest or weed control at 560 g/ha: 560 g ae/ha
[6] = tested on: glyphosate resistant Conyza canadensis (L.) (ERICA), horseweed; experiment: Postemergence herbicide evaluation, growth of Conyza canadensis (ERICA); assay type: in vivo; details: Erigeron canadensis, post-emergence, percent reduction in plant size relative to untreated control, read-out: Ave. ERICA; for pest or weed control at 280 g/ha: 280 g ae/ha; for pest or weed control at 560 g/ha: 560 g ae/ha
[7] = tested on: Chenopodium album (CHEAL), common lambsquarters; experiment: Postemergence herbicide evaluation, growth of Chenopodium album (CHEAL); assay type: in vivo; details: Chenopodium album, post-emergence, percent reduction in plant size relative to untreated control, read-out: Ave. CHEAL; for pest or weed control at 280 g/ha: 280 g ae/ha; for pest or weed control at 560 g/ha: 560 g ae/ha

`CS/C(C)=N\OC(=O)COc1ccc(Cl)cc1Cl` [Compound A10, Methyl N-2-(2,4-dichlorophenoxy)acetoxyethanimidothioate] gave a pest or weed control at 280 g/ha ([1]; 168 h, 7 DAA) of 72%, a pest or weed control at 560 g/ha ([1]; 168 h, 7 DAA) of 76% and a pest or weed control at 280 g/ha ([1]; 336 h, 14 DAA) of 83%. It also gave a pest or weed control at 560 g/ha ([1]; 336 h, 14 DAA) of 84%, a pest or weed control at 280 g/ha ([1]; 504 h, 21 DAA) of 90% and a pest or weed control at 560 g/ha ([1]; 504 h, 21 DAA) of 84%. For the same molecule, the pest or weed control at 280 g/ha ([2]; 168 h, 7 DAA) was 83%, the pest or weed control at 560 g/ha ([2]; 168 h, 7 DAA) was 88% and the pest or weed control at 280 g/ha ([2]; 336 h, 14 DAA) was 90%. It also gave a pest or weed control at 560 g/ha ([2]; 336 h, 14 DAA) of 92%, a pest or weed control at 280 g/ha ([2]; 504 h, 21 DAA) of 98% and a pest or weed control at 560 g/ha ([2]; 504 h, 21 DAA) of 94%. For the same molecule, the “TGA Data (rate of weight loss, volatility)” value [3] was 0.6 µg/min, the pest or weed control at 280 g/ha ([4]; 168 h, 7 DAA) was 80% and the pest or weed control at 560 g/ha ([4]; 168 h, 7 DAA) was 78%. It also gave a pest or weed control at 280 g/ha ([4]; 336 h, 14 DAA) of 80%, a pest or weed control at 560 g/ha ([4]; 336 h, 14 DAA) of 73% and a pest or weed control at 280 g/ha ([4]; 504 h, 21 DAA) of 78%. The pest or weed control at 560 g/ha ([4]; 504 h, 21 DAA) was 83%, the pest or weed control at 280 g/ha ([5]; 168 h, 7 DAA) was 70% and the pest or weed control at 560 g/ha ([5]; 168 h, 7 DAA) was 75%. The pest or weed control at 280 g/ha ([5]; 336 h, 14 DAA) was 85%, the pest or weed control at 560 g/ha ([5]; 336 h, 14 DAA) was 92% and the pest or weed control at 280 g/ha ([5]; 504 h, 21 DAA) was 100%. The pest or weed control at 560 g/ha ([5]; 504 h, 21 DAA) was 96%, the pest or weed control at 280 g/ha ([6]; 168 h, 7 DAA) was 63% and the pest or weed control at 560 g/ha ([6]; 168 h, 7 DAA) was 68%. The pest or weed control at 280 g/ha ([6]; 336 h, 14 DAA) was 85%, the pest or weed control at 560 g/ha ([6]; 336 h, 14 DAA) was 83% and the pest or weed control at 280 g/ha ([6]; 504 h, 21 DAA) was 93%. The pest or weed control at 560 g/ha ([6]; 504 h, 21 DAA) was 94%, the pest or weed control at 280 g/ha ([7]; 168 h, 7 DAA) was 65% and the pest or weed control at 560 g/ha ([7]; 168 h, 7 DAA) was 70%. The pest or weed control at 280 g/ha ([7]; 336 h, 14 DAA) was 75%, the pest or weed control at 560 g/ha ([7]; 336 h, 14 DAA) was 83% and the pest or weed control at 280 g/ha ([7]; 504 h, 21 DAA) was 83%. The pest or weed control at 560 g/ha ([7]; 504 h, 21 DAA) was 53%.
With `O=C(COc1ccc(Cl)cc1Cl)ON1CCCCC1` [Compound A11, Piperidin-1-yl 2-(2,4-dichlorophenoxy)acetate] the pest or weed control at 280 g/ha ([1]; 168 h, 7 DAA) was 71%, the pest or weed control at 560 g/ha ([1]; 168 h, 7 DAA) was 75% and the pest or weed control at 280 g/ha ([1]; 336 h, 14 DAA) was 87%. It also gave a pest or weed control at 560 g/ha ([1]; 336 h, 14 DAA) of 87%, a pest or weed control at 280 g/ha ([1]; 504 h, 21 DAA) of 91% and a pest or weed control at 560 g/ha ([1]; 504 h, 21 DAA) of 95%. For the same molecule, the pest or weed control at 280 g/ha ([2]; 168 h, 7 DAA) was 83%, the pest or weed control at 560 g/ha ([2]; 168 h, 7 DAA) was 85% and the pest or weed control at 280 g/ha ([2]; 336 h, 14 DAA) was 93%. It also gave a pest or weed control at 560 g/ha ([2]; 336 h, 14 DAA) of 89%, a pest or weed control at 280 g/ha ([2]; 504 h, 21 DAA) of 99% and a pest or weed control at 560 g/ha ([2]; 504 h, 21 DAA) of 95%. The “TGA Data (rate of weight loss, volatility)” value [3] was 4 µg/min, the pest or weed control at 280 g/ha ([4]; 168 h, 7 DAA) was 73% and the pest or weed control at 560 g/ha ([4]; 168 h, 7 DAA) was 75%. For the same molecule, the pest or weed control at 280 g/ha ([4]; 336 h, 14 DAA) was 89%, the pest or weed control at 560 g/ha ([4]; 336 h, 14 DAA) was 85% and the pest or weed control at 280 g/ha ([4]; 504 h, 21 DAA) was 85%. The pest or weed control at 560 g/ha ([4]; 504 h, 21 DAA) was 88%, the pest or weed control at 280 g/ha ([5]; 168 h, 7 DAA) was 65% and the pest or weed control at 560 g/ha ([5]; 168 h, 7 DAA) was 78%. The pest or weed control at 280 g/ha ([5]; 336 h, 14 DAA) was 90%, the pest or weed control at 560 g/ha ([5]; 336 h, 14 DAA) was 97% and the pest or weed control at 280 g/ha ([5]; 504 h, 21 DAA) was 95%. The pest or weed control at 560 g/ha ([5]; 504 h, 21 DAA) was 100%, the pest or weed control at 280 g/ha ([6]; 168 h, 7 DAA) was 65% and the pest or weed control at 560 g/ha ([6]; 168 h, 7 DAA) was 68%. It also gave a pest or weed control at 280 g/ha ([6]; 336 h, 14 DAA) of 90%, a pest or weed control at 560 g/ha ([6]; 336 h, 14 DAA) of 85% and a pest or weed control at 280 g/ha ([6]; 504 h, 21 DAA) of 95%. The pest or weed control at 560 g/ha ([6]; 504 h, 21 DAA) was 95%, the pest or weed control at 280 g/ha ([7]; 168 h, 7 DAA) was 68% and the pest or weed control at 560 g/ha ([7]; 168 h, 7 DAA) was 70%. It also gave a pest or weed control at 280 g/ha ([7]; 336 h, 14 DAA) of 75%, a pest or weed control at 560 g/ha ([7]; 336 h, 14 DAA) of 80% and a pest or weed control at 280 g/ha ([7]; 504 h, 21 DAA) of 80%. For the same molecule, the pest or weed control at 560 g/ha ([7]; 504 h, 21 DAA) was 97%.
